Here are results for 1 molecule from US20240238316A1, “C[…]” (priority 2021, published 2024).

A short description of this series: solvents tested for dissolving the acid and the cannabinoid. It is filed as physicochemical. The settings on record: compared with other solvents, including other alcohols. How it is done: Various solvents are tested, including other alcohols.

On to `CC(O)CO` (stereo not shown) [Propylene glycol], for which the “dissolution of the acid and the cannabinoid in the solvent” value is “dissolve both the acid and the cannabinoid efficiently and without excessive heating”.
